Laboratory results as given in PubChem BioAssay (NCI).
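Cells were grown in 96-well plates and exposed to each compound for 48 hours at five concentrations; endpoints were interpolated linearly between bracketing concentrations, or set to the highest concentration if not reached. The concentration for full growth arrest is given as TGI.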

Legend:
Assay in all cases: DTP human tumour cell line panel, 48 h
[1] = test system: A498 renal
[2] = test system: HCT-116 colon
[3] = test system: HL-60(TB) leukemia
[4] = test system: NCI-H226 lung
[5] = test system: NCI-H522 lung
[6] = test system: SK-MEL-28 melanoma
[7] = test system: SN12C renal
[8] = test system: SNB-19 CNS
[9] = test system: CCRF-CEM leukemia
[10] = test system: NCI-H460 lung

SMILES | TGI [1] [µM] | TGI [2] [µM] | TGI [3] [µM] | TGI [4] [µM] | TGI [5] [µM] | TGI [6] [µM] | TGI [7] [µM] | TGI [8] [µM] | TGI [9] [µM] | TGI [10] [µM]
CCOC(=O)C12C(=O)CCN1CCc1ccccc1C2C (configuration not stated) | > 100 | > 100 | > 100 | > 100 | > 100 | > 100 | > 100 | > 100 |  | 
Cc1nn(C(=O)c2ccc(Cl)cc2)c2c1C(c1ccco1)SC(N)=N2 (configuration not stated) |  | > 10 | > 10 | > 10 | > 10 | > 10 | > 10 | > 10 | > 10 | > 10
CC(C)(C)c1cc(C2NC(=O)NC2=O)cc(C(C)(C)C)c1O (configuration not stated) | > 100 | 84.5 |  | > 100 | > 100 | > 100 |  | > 100 | > 100 | 
CC1CN=C(N(C)C(=O)Nc2ccc(Cl)c(Cl)c2)S1 (configuration not stated) | > 100 | > 100 | 57.1 |  |  | 37.9 | > 100 | > 100 | > 100 | > 100
O=C1C=C(NCCc2cc(Br)c(O)c(Br)c2)C(=O)c2[nH]cnc21 |  | 43.9 |  | > 100 | 87.4 | > 100 | > 100 | > 100 | 41.7 | > 100
CCCN(CCC)c1c([N+](=O)[O-])cc(C(=O)N(C)C)cc1[N+](=O)[O-] |  | > 100 | 86.8 |  | > 100 | > 100 | > 100 |  | > 100 | > 100
COC(=O)C(N)CCCC(N)C(=O)NC(C)C(=O)NC(CCC(=O)NCCCNc1ccc([N+](=O)[O-])c2[nH]c3ccccc3c(=O)c12)C(N)=O (configuration not stated) | 30.7 | 12.4 |  | 27.9 |  | 22 |  | 15 | 14.3 | 17.2
O=C1CC(Cl)c2c(Cl)sc(Cl)c21 (configuration not stated) | 27.3 | 3.12 | 3.23 | 28.8 | 4.51 | 4.58 | 3.15 | 24 |  | 40
O=C1/C(=C2\SCC(=O)N2c2ccccc2)SC(=S)N1c1ccccc1 | > 100 | > 100 | > 100 | 48.4 |  | > 100 | 68.6 | > 100 | > 100 | > 100
c1cn[nH]c1 | > 10 | > 10 | > 10 | > 10 |  | > 10 | > 10 | > 10 | > 10 | > 10
O=C(c1ccccc1)n1[nH]c(=O)n(-c2ccc(Cl)cc2)c1=O |  | > 100 | > 100 | > 100 |  | > 100 | > 100 | 83.3 | > 100 | > 100
C/C(NC(=O)c1ccccc1)=C(/C(=O)c1ccccc1)[C@@H]1OC(C)(C)O[C@@H]1[C@H]1COC(C)(C)O1 | > 100 | 52.5 | 43.8 | > 100 | 36 | > 100 | 60.4 | > 100 |  | 65.5
O=c1c(S(=O)(=O)Oc2ccccc2)coc2cc(F)ccc12 |  | > 100 |  | 73.6 | > 100 | > 100 | > 100 | > 100 | > 100 | > 100
Cc1ccsc1/C=N/Nc1ccccn1 | > 100 | > 100 |  | > 100 |  | > 100 | > 100 | > 100 | > 100 | 
CC(C)=CCC/C(C)=C/CC/C(C)=C/CSc1ccc(Cl)cc1C(=O)O | 38.7 | 31.6 | 50.8 | 36.8 |  | 33.9 | 48 | 34.4 | 48.9 | 32.7
CC(C)C[C@H](NC(=O)[C@H](CCc1ccccc1)NC(=O)c1ccc2ccccc2n1)B(O)O | 4.38 | 0.0595 | 0.0955 | 0.367 | < 0.0405 | 0.055 | 0.486 | 13.1 |  | 2.47
Cn1c(=O)c2[nH]c(-n3nc(-c4ccccc4)cc3N)nc2n(C)c1=O | 27.9 | > 100 | 61.2 | 33.7 |  | 57.3 | > 100 |  | > 100 | > 100
C=C(COC(=O)C(C)C)[C@H]1Oc2ccc(C(C)=O)cc2[C@@H]1OC(=O)C(C)C |  | > 100 | > 100 | > 100 |  | > 100 | > 100 | > 100 | > 100 | > 100
